# According to PubChem BioAssay (NCI):
#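 Five concentrations, 48 hours, 96-well plates. GI50: concentration for 50% inhibition of growth. TGI: concentration producing complete growth inhibition.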
# Tests used:
# Test in all cases: growth of human tumour cells (NCI), 48 h
# SR leukemia = system: SR leukemia
# OVCAR-3 ovarian = system: OVCAR-3 ovarian
# BT-549 breast = system: BT-549 breast
# NCI-H460 lung = system: NCI-H460 lung
# M14 melanoma = system: M14 melanoma
# SNB-75 CNS = system: SNB-75 CNS
# TK-10 renal = system: TK-10 renal
# MALME-3M melanoma = system: MALME-3M melanoma
# ACHN renal = system: ACHN renal
# NCI-H23 lung = system: NCI-H23 lung
# SF-539 CNS = system: SF-539 CNS
# SF-295 CNS = system: SF-295 CNS
# MDA-MB-231 breast = system: MDA-MB-231 breast
# RXF 393 renal = system: RXF 393 renal
# OVCAR-8 ovarian = system: OVCAR-8 ovarian
# UO-31 renal = system: UO-31 renal
# SNB-19 CNS = system: SNB-19 CNS
# SK-MEL-28 melanoma = system: SK-MEL-28 melanoma
# HOP-62 NSCLC = system: HOP-62 NSCLC
# OVCAR-5 ovarian = system: OVCAR-5 ovarian
# NCI-H226 lung = system: NCI-H226 lung
# HOP-92 NSCLC = system: HOP-92 NSCLC
# SK-MEL-5 melanoma = system: SK-MEL-5 melanoma
# A498 renal = system: A498 renal
# HCC-2998 colon = system: HCC-2998 colon
# MCF7 breast = system: MCF7 breast
# RPMI-8226 leukemia = system: RPMI-8226 leukemia
# EKVX NSCLC = system: EKVX NSCLC
# IGROV1 ovarian = system: IGROV1 ovarian
# 786-0 renal = system: 786-0 renal
# COLO 205 colon = system: COLO 205 colon
# KM12 colon = system: KM12 colon
# HCT-116 colon = system: HCT-116 colon
# SN12C renal = system: SN12C renal
# MDA-MB-435 = system: MDA-MB-435
# MOLT-4 leukemia = system: MOLT-4 leukemia
# T-47D breast = system: T-47D breast
# U251 CNS = system: U251 CNS
# DU-145 prostate = system: DU-145 prostate
# CCRF-CEM leukemia = system: CCRF-CEM leukemia
# SW-620 colon = system: SW-620 colon
# HL-60(TB) leukemia = system: HL-60(TB) leukemia
# SK-OV-3 ovarian = system: SK-OV-3 ovarian
# UACC-62 melanoma = system: UACC-62 melanoma
# CAKI-1 renal = system: CAKI-1 renal
# HT29 colon = system: HT29 colon
# K-562 leukemia = system: K-562 leukemia
# OVCAR-4 ovarian = system: OVCAR-4 ovarian
# NCI-H522 lung = system: NCI-H522 lung
# A549 NSCLC = system: A549 NSCLC
# HS 578T breast = system: HS 578T breast
# PC-3 prostate = system: PC-3 prostate
# SF-268 CNS = system: SF-268 CNS
# UACC-257 melanoma = system: UACC-257 melanoma
# SK-MEL-2 melanoma = system: SK-MEL-2 melanoma
# HCT-15 colon = system: HCT-15 colon
# NCI/ADR-RES ovarian = system: NCI/ADR-RES ovarian
smiles,measurement,setting,value
Cc1cc2nc3c4cc(O)ccc4n(CCN(C)C)c3nc2cc1C,GI50,SR leukemia,309 nM
same,GI50,OVCAR-3 ovarian,1770 nM
same,TGI,OVCAR-3 ovarian,8190 nM
same,GI50,BT-549 breast,2030 nM
same,TGI,BT-549 breast,6270 nM
same,GI50,NCI-H460 lung,468 nM
same,TGI,NCI-H460 lung,1990 nM
same,GI50,M14 melanoma,523 nM
same,TGI,M14 melanoma,1910 nM
same,GI50,SNB-75 CNS,229 nM
same,TGI,SNB-75 CNS,2920 nM
same,GI50,TK-10 renal,2210 nM
same,TGI,TK-10 renal,6130 nM
same,GI50,MALME-3M melanoma,1140 nM
same,TGI,MALME-3M melanoma,2410 nM
same,GI50,ACHN renal,408 nM
same,TGI,ACHN renal,10300 nM
same,GI50,NCI-H23 lung,833 nM
same,TGI,NCI-H23 lung,3350 nM
same,GI50,SF-539 CNS,519 nM
same,TGI,SF-539 CNS,2090 nM
same,GI50,SF-295 CNS,573 nM
same,TGI,SF-295 CNS,2490 nM
same,GI50,MDA-MB-231 breast,898 nM
same,TGI,MDA-MB-231 breast,5710 nM
same,GI50,RXF 393 renal,828 nM
same,TGI,RXF 393 renal,2470 nM
same,GI50,OVCAR-8 ovarian,494 nM
same,TGI,OVCAR-8 ovarian,4730 nM
same,GI50,UO-31 renal,292 nM
same,TGI,UO-31 renal,2070 nM
same,GI50,SNB-19 CNS,609 nM
same,TGI,SNB-19 CNS,12300 nM
same,GI50,SK-MEL-28 melanoma,1560 nM
same,TGI,SK-MEL-28 melanoma,3160 nM
same,GI50,HOP-62 NSCLC,676 nM
same,TGI,HOP-62 NSCLC,12400 nM
same,GI50,OVCAR-5 ovarian,953 nM
same,TGI,OVCAR-5 ovarian,4460 nM
same,GI50,NCI-H226 lung,1180 nM
same,TGI,NCI-H226 lung,5450 nM
same,GI50,HOP-92 NSCLC,287 nM
same,TGI,HOP-92 NSCLC,2620 nM
same,GI50,SK-MEL-5 melanoma,1590 nM
same,TGI,SK-MEL-5 melanoma,2970 nM
same,GI50,A498 renal,403 nM
same,TGI,A498 renal,2040 nM
same,GI50,HCC-2998 colon,1710 nM
same,TGI,HCC-2998 colon,4710 nM
same,GI50,MCF7 breast,450 nM
same,TGI,MCF7 breast,3260 nM
same,GI50,RPMI-8226 leukemia,417 nM
same,TGI,RPMI-8226 leukemia,2630 nM
same,GI50,EKVX NSCLC,2250 nM
same,TGI,EKVX NSCLC,9960 nM
same,GI50,IGROV1 ovarian,474 nM
same,TGI,IGROV1 ovarian,2890 nM
same,GI50,786-0 renal,929 nM
same,TGI,786-0 renal,2420 nM
same,GI50,COLO 205 colon,698 nM
same,TGI,COLO 205 colon,3990 nM
same,GI50,KM12 colon,1380 nM
same,TGI,KM12 colon,7800 nM
same,GI50,HCT-116 colon,397 nM
same,TGI,HCT-116 colon,3360 nM
same,GI50,SN12C renal,586 nM
same,TGI,SN12C renal,12400 nM
same,GI50,MDA-MB-435,1070 nM
same,TGI,MDA-MB-435,2360 nM
same,GI50,MOLT-4 leukemia,377 nM
same,TGI,MOLT-4 leukemia,11200 nM
same,GI50,T-47D breast,1280 nM
same,TGI,T-47D breast,> 100000 nM
same,GI50,U251 CNS,747 nM
same,TGI,U251 CNS,4460 nM
same,GI50,DU-145 prostate,1030 nM
same,TGI,DU-145 prostate,4310 nM
same,GI50,CCRF-CEM leukemia,518 nM
same,TGI,CCRF-CEM leukemia,6000 nM
same,GI50,SW-620 colon,404 nM
same,TGI,SW-620 colon,1800 nM
same,GI50,HL-60(TB) leukemia,364 nM
same,TGI,HL-60(TB) leukemia,1760 nM
same,GI50,SK-OV-3 ovarian,1800 nM
same,TGI,SK-OV-3 ovarian,> 61000 nM
same,GI50,UACC-62 melanoma,729 nM
same,TGI,UACC-62 melanoma,2600 nM
same,GI50,CAKI-1 renal,337 nM
same,TGI,CAKI-1 renal,2110 nM
same,GI50,HT29 colon,475 nM
same,TGI,HT29 colon,2310 nM
same,GI50,K-562 leukemia,368 nM
same,TGI,K-562 leukemia,> 100000 nM
same,GI50,OVCAR-4 ovarian,1340 nM
same,TGI,OVCAR-4 ovarian,3630 nM
same,GI50,NCI-H522 lung,541 nM
same,TGI,NCI-H522 lung,3320 nM
same,GI50,A549 NSCLC,780 nM
same,TGI,A549 NSCLC,5070 nM
same,GI50,HS 578T breast,1490 nM
same,TGI,HS 578T breast,5410 nM
same,GI50,PC-3 prostate,578 nM
same,TGI,PC-3 prostate,2300 nM
same,GI50,SF-268 CNS,1250 nM
same,TGI,SF-268 CNS,5890 nM
same,GI50,UACC-257 melanoma,2060 nM
same,TGI,UACC-257 melanoma,5200 nM
same,GI50,SK-MEL-2 melanoma,1650 nM
same,TGI,SK-MEL-2 melanoma,3690 nM
same,GI50,HCT-15 colon,611 nM
same,TGI,HCT-15 colon,4100 nM
same,GI50,NCI/ADR-RES ovarian,499 nM
same,TGI,NCI/ADR-RES ovarian,4200 nM
